Laboratory results taken from patent US20190022039A1, “COMPOUND HAVING ENHANCING ACTIVITY FOR GLUCAGON-LIKE PEPTIDE-1 RECEPTOR ACTIONS” (AJINOMOTO CO., INC., priority 2016, published 2019).

Target: T1, human GLP-1R (Homo sapiens, UniProt P43220)
T1 construct: expressed in transfected cells; host or cells: PEAK RAPID-derived Gα15-trans48 LD stably expressing cells (PRG48), transiently transfected with Lipofectamine 2000
Experiment: GLP-1 receptor in vitro calcium assay (intracellular free calcium concentration change induced via GLP-1 receptor)
Type: cell-based
Details: for EC50: PRG48 cells transfected with human GLP-1R, compound added with 250 pM GLP-1, Ca2+ response ΔF/F, read-out: Ca EC50 value; for GLP-1 receptor action enhancing activity (vs BETP): intensity compared to BETP, activity of BETP as 1
Description: The supernatant was removed by centrifugation (1,200 rpm, 3 min), and the cells were suspended at 4×10^6 cells/mL in 5% FBS DMEM/Ham's F-12. 1.0 mL thereof was seeded in a 15 cm dish and cultured (37° C., 5% CO2) overnight. The next day, the medium of the cultured PRG48 cells was replaced with 5% FBS DMEM/Ham's F-12 medium (30 mL), human GLP-1R gene mixture solution (GLP-1R/pc.DNA3.1(+) 60 μg) prepared using 6.0 mL of Opti-MEM (invitrogen) and 120 μL of Lipofectamin 2000 (invitrogen) was slowly added to the cells, and cultured (37° C., 5% CO2) for 6 hr to introduce the gene. […] The cells were counted, suspended at 0.5×10^6 cells/mL in 5% FBS DMEM/Ham's F-12 medium, and seeded in each well of D-Lysine coat 96 well plate (BD Bioscience) at 7.0×10^4 cells. After static adhesion at room temperature for 1 hr, the cells were cultured overnight (37° C., 5% CO2). The medium in the Cultured 96 well was entirely discarded, 150 μL of intracellular calcium measurement staining solution Calcium assay kit Express (Molecular Device) diluted 80-fold with Assay buffer (20 mM HEPES, 146 mM NaCl, 1 mM MgSO4, 1.39 mM glucose, 1 mM CaCl2, 2.5 mM Probenecid, 0.05% Casein Enzymatic Hydrolysate) was added, and the mixture was stood at 37° C. for 30 min, and then at room temperature for 45 min to perform staining. After staining, 250 pM GLP-1 and the compound were added and Ca^2+ response was observed by using FDSSμCELL (Hamamatsu Photonics K.K.). Each evaluation compound was dissolved in DMSO, further diluted with Assay buffer and used.
For evaluation, the fluorescence values (Ex480:Em540) before and after addition were measured, and changes in the intracellular free calcium concentration produced via GLP-1R receptor by the addition were quantitatively examined. For the measurement and analysis of the fluorescence values, a soft (FDSS7000EX) attached to the FDSSμCELL was used, and ΔF/F value ((maximum fluorescence value after stimulation−minimum fluorescence value after stimulation)/fluorescence value before stimulation) was calculated. Using the obtained ΔF/F values, EC50 value was calculated by Prism5.

T1 sequence (P43220 24-463): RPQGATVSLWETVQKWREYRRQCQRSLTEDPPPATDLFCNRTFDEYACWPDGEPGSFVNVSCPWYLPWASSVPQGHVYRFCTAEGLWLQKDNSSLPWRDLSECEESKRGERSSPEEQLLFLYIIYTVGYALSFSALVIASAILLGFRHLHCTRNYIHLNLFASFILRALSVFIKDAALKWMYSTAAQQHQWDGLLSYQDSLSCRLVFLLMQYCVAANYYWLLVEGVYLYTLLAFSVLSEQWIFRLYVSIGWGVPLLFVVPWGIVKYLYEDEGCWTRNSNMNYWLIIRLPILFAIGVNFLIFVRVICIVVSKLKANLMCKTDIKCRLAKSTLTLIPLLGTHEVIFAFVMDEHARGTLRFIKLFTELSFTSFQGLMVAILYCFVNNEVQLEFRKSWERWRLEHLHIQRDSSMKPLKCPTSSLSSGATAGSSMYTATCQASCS

| Compound | EC50 [nM] | GLP-1 receptor action enhancing activity (vs BETP) |
| --- | --- | --- |
| CC[S+]([O-])c1nc(-c2cccc(OCc3ccccc3)c2)cc(C(F)(F)F)n1 (stereo not drawn) [BETP, 4-(3-benzyloxyphenyl)-2-ethylsulfinyl-6-(trifluoromethyl)pyrimidine, reference compound] | 25000 | 1 |
| CCCCC(CC)CNC(=O)[C@@H](Cc1ccc(Cl)cc1)NC(=O)Nc1ccc(NS(=O)(=O)c2ccc(C(C)(C)C)cc2)cc1 (stereo partly drawn) [Compound 1, (2R)-2-({4-[(4-tert-butylphenyl)sulfonylamino]phenyl}carbamoylamino)-3-(4-chlorophenyl)-N-(2-ethylhexyl)propanamide] | 4.3 |  |
| CCCCCCNC(=O)[C@@H](Cc1ccccc1)NC(=O)Nc1ccc(NS(=O)(=O)c2ccc(C)cc2)cc1 [Compound 2] | 680 | 37 |
| Cc1ccc(S(=O)(=O)Nc2ccc(NC(=O)N[C@H](Cc3ccccc3)C(=O)NC3CCCCC3)cc2)cc1 [Compound 3] | 1700 | 15 |
| Cc1ccc(S(=O)(=O)Nc2ccc(NC(=O)N[C@H](Cc3ccccc3)C(=O)NCC(C)(C)C)cc2)cc1 [Compound 4] | 1900 | 13 |
| CCCCCCCCNC(=O)[C@@H](Cc1ccccc1)NC(=O)Nc1ccc(NS(=O)(=O)c2ccc(C)cc2)cc1 [Compound 5] | 51 | 490 |
| CCCCCCCNC(=O)[C@@H](Cc1ccccc1)NC(=O)Nc1ccc(NS(=O)(=O)c2ccc(C)cc2)cc1 [Compound 6] | 130 | 187 |
| Cc1ccc(S(=O)(=O)Nc2ccc(NC(=O)N[C@H](Cc3ccccc3)C(=O)NCC#N)cc2)cc1 [Compound 7] | 50 | 505 |
| Cc1ccc(S(=O)(=O)Nc2ccc(NC(=O)N[C@H](Cc3ccccc3)C(=O)NCC3CCCCC3)cc2)cc1 [Compound 8] | 500 | 50 |
| COC(C)(C)CNC(=O)[C@@H](Cc1ccccc1)NC(=O)Nc1ccc(NS(=O)(=O)c2ccc(C)cc2)cc1 [Compound 9] | 650 | 39 |
| CCC(CC)CNC(=O)[C@@H](Cc1ccccc1)NC(=O)Nc1ccc(NS(=O)(=O)c2ccc(C)cc2)cc1 [Compound 10] | 380 | 67 |
| CCCCCCNC(=O)[C@@H](CC(C)C)NC(=O)Nc1ccc(NS(=O)(=O)c2ccc(C)cc2)cc1 [Compound 11] | 490 | 52 |
| Cc1ccc(S(=O)(=O)Nc2ccc(NC(=O)N[C@H](Cc3ccccc3)C(=O)NCc3cccs3)cc2)cc1 [Compound 12] | 540 | 47 |
| Cc1ccc(S(=O)(=O)Nc2ccc(NC(=O)N[C@H](Cc3ccccc3)C(=O)NCCc3ccccc3)cc2)cc1 [Compound 13] | 1700 | 15 |
| Cc1ccc(S(=O)(=O)Nc2ccc(NC(=O)N[C@H](Cc3ccccc3)C(=O)NCc3ccccc3)cc2)cc1 [Compound 14] | 1800 | 14 |
| Cc1ccc(S(=O)(=O)Nc2ccc(NC(=O)N[C@H](Cc3ccccc3)C(=O)NCC(F)(F)F)cc2)cc1 [Compound 15] | 42 | 599 |
| CCCCCCNC(=O)[C@@H](CCCC)NC(=O)Nc1ccc(NS(=O)(=O)c2ccc(C)cc2)cc1 [Compound 16] | 520 | 49 |
| CCCCCCNC(=O)[C@@H](Cc1ccc(F)cc1)NC(=O)Nc1ccc(NS(=O)(=O)c2ccc(C)cc2)cc1 [Compound 17] | 520 | 48 |
| CCCCCCNC(=O)[C@@H](CC1CCCCC1)NC(=O)Nc1ccc(NS(=O)(=O)c2ccc(C)cc2)cc1 [Compound 18] | 360 | 71 |

| Compound | EC50 [nM] | GLP-1 receptor action enhancing activity (vs BETP) |
| --- | --- | --- |
| CCCCCCNC(=O)[C@@H](Cc1ccc(Cl)cc1)NC(=O)Nc1ccc(NS(=O)(=O)c2ccc(C)cc2)cc1 [Compound 19] | 160 |  |
| CCCCCCNC(=O)[C@@H](CCSC)NC(=O)Nc1ccc(NS(=O)(=O)c2ccc(C)cc2)cc1 [Compound 20] | 1500 | 17 |
| CCCCCCNC(=O)[C@@H](Cc1c[nH]c2ccccc12)NC(=O)Nc1ccc(NS(=O)(=O)c2ccc(C)cc2)cc1 [Compound 21] | 470 | 53 |
| Cc1ccc(S(=O)(=O)Nc2ccc(NC(=O)N[C@H](Cc3ccccc3)C(=O)NCCC3CCCCC3)cc2)cc1 [Compound 22] | 220 | 116 |
| Cc1ccc(S(=O)(=O)Nc2ccc(NC(=O)N[C@H](Cc3ccccc3)C(=O)NC3CCCCCC3)cc2)cc1 [Compound 23] | 370 | 68 |
| COc1ccc(CNC(=O)[C@@H](Cc2ccccc2)NC(=O)Nc2ccc(NS(=O)(=O)c3ccc(C)cc3)cc2)cc1 [Compound 25] | 1400 | 18 |
| Cc1ccc(S(=O)(=O)Nc2ccc(NC(=O)N[C@H](Cc3ccccc3)C(=O)NCc3ccc(F)cc3)cc2)cc1 [Compound 26] | 1100 | 24 |
| Cc1ccc(S(=O)(=O)Nc2ccc(NC(=O)N[C@H](Cc3ccccc3)C(=O)NCC3CCCC3)cc2)cc1 [Compound 27] | 1100 | 23 |
| Cc1ccc(S(=O)(=O)Nc2ccc(NC(=O)N[C@H](CC(C)C)C(=O)NCCc3cccs3)cc2)cc1 [Compound 28] | 1800 | 14 |
| Cc1ccc(S(=O)(=O)Nc2ccc(NC(=O)N[C@H](CC(C)C)C(=O)NCC3CCCCC3)cc2)cc1 [Compound 29] | 940 | 27 |
| CCC(CC)CNC(=O)[C@@H](CC(C)C)NC(=O)Nc1ccc(NS(=O)(=O)c2ccc(C)cc2)cc1 [Compound 30] | 1200 | 21 |
| Cc1ccc(S(=O)(=O)Nc2ccc(NC(=O)N[C@H](Cc3ccccc3)C(=O)N[C@@H](C)c3ccccc3)cc2)cc1 [Compound 31] | 480 | 52 |
| Cc1ccc(S(=O)(=O)Nc2ccc(NC(=O)N[C@H](Cc3ccccc3)C(=O)NCc3ccc(C)o3)cc2)cc1 [Compound 32] | 820 | 31 |
| CCCC[C@@H](NC(=O)[C@@H](Cc1ccccc1)NC(=O)Nc1ccc(NS(=O)(=O)c2ccc(C)cc2)cc1)C(=O)OC [Compound 33] | 1500 | 17 |
| CCCCC(CC)CNC(=O)[C@@H](Cc1ccccc1)NC(=O)Nc1ccc(NS(=O)(=O)c2ccc(C)cc2)cc1 (stereo partly drawn) [Compound 34] | 64 | 391 |
| CCCCCNC(=O)[C@@H](Cc1ccccc1)NC(=O)Nc1ccc(NS(=O)(=O)c2ccc(C)cc2)cc1 [Compound 35] | 660 | 38 |
| CCCCC(CC)CNC(=O)[C@@H](Cc1ccccc1)NC(=O)Nc1ccc(NS(=O)(=O)c2ccc(C(C)(C)C)cc2)cc1 (stereo partly drawn) [Compound 36] | 18 | 1425 |
| CCCCC(CC)CNC(=O)[C@@H](CC(C)C)NC(=O)Nc1ccc(NS(=O)(=O)c2ccc(C)cc2)cc1 (stereo partly drawn) [Compound 37] | 180 | 140 |
